SMILES strings stand for the structures.

T1 sequence (Q13304 whole entry): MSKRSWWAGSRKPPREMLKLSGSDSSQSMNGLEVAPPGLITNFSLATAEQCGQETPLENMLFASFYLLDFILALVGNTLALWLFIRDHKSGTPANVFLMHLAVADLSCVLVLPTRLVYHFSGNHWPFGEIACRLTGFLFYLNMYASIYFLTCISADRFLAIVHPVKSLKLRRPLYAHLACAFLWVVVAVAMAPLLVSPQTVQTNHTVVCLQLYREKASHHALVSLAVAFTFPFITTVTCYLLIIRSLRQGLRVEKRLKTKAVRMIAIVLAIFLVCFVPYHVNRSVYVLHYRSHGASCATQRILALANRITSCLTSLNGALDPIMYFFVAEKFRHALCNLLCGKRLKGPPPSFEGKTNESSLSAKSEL

This test concerns the target T1, human GPR17 receptor (Homo sapiens, UniProt Q13304).
T1 construct: host or cells: HEK-293
Kind of test: Calcium mobilization functional assay (Fluo-8, FLIPR TETRA) in HEK-293 hGPR17 (Gα-q assay). The following applies: antagonism of MDL29,951 (~EC80) induced Ca2+ signal; cell line (HEK-293 hGPR17 or HEK-293 Suchi5 hGPR17) not given. It counts as cell-based. In outline:
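Fluo-8-loaded HEK-293 hGPR17 cells (60 min dye loading, room temperature) were preincubated with compound for twenty minutes, then challenged with agonist MDL29,951 at ~EC80, 500 nM. Intracellular calcium release via Gα-q was recorded as FLIPR fluorescence for a further 2 minutes; compounds tested in duplicate.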
In general terms: Calcium assays in cells follow changes in intracellular calcium, usually with a dye or a luminescent sensor.
Turning to `N#CCOc1cc(F)c(NS(=O)(=O)c2c[nH]c(-c3ccccc3F)c2)cc1F` [Cpd 448, N-[4-(cyanomethoxy)-2,5-difluorophenyl]-5-(2-fluorophenyl)-1H-pyrrole-3-sulfonamide], the IC50 (usually the concentration at which inhibition is half-maximal) is under 500 nM.
On to `N#CCOc1cc(F)c(NS(=O)(=O)c2c[nH]c(-c3cc(Cl)ccc3F)c2)cc1F` [Cpd 449, 5-(5-chloro-2-fluorophenyl)-N-[4-(cyanomethoxy)-2,5-difluorophenyl]-1H-pyrrole-3-sulfonamide], for which the IC50 is under 500 nM.
For `N#CCOc1cc(F)c(NS(=O)(=O)c2c[nH]c(-c3ccc(F)cc3)c2)cc1F` [Cpd 450, N-[4-(cyanomethoxy)-2,5-difluorophenyl]-5-(4-fluorophenyl)-1H-pyrrole-3-sulfonamide] the value was 500 to 5000 nM; for `N#CCOc1cc(F)c(NS(=O)(=O)c2c[nH]c(-c3ccc(F)cc3F)c2)cc1F` [Cpd 451, N-[4-(cyanomethoxy)-2,5-difluorophenyl]-5-(2,4-difluorophenyl)-1H-pyrrole-3-sulfonamide], 500 to 5000 nM; for `O=S(=O)(Nc1cc(F)c(OC(F)F)cc1F)c1c[nH]cc1Cc1cccs1` [Cpd 452, N-[4-(difluoromethoxy)-2,5-difluorophenyl]-4-(thiophen-2-ylmethyl)-1H-pyrrole-3-sulfonamide], under 500 nM.
For the compound `O=S(=O)(Nc1cc(F)c(OC(F)F)cc1F)c1c[nH]cc1Cc1cccc(F)c1` [Cpd 453, N-[4-(difluoromethoxy)-2,5-difluorophenyl]-4-[(3-fluorophenyl)methyl]-1H-pyrrole-3-sulfonamide], the IC50 is under 500 nM.
For `O=S(=O)(Nc1cc(F)c(OC(F)F)cc1F)c1c[nH]cc1Cc1cccc(Cl)c1` [Cpd 454, 4-[(3-chlorophenyl)methyl]-N-[4-(difluoromethoxy)-2,5-difluorophenyl]-1H-pyrrole-3-sulfonamide] the value was 500 to 5000 nM; for `O=S(=O)(Nc1cc(Cl)c(OC(F)F)cc1F)c1c[nH]c(-c2ccccc2)c1` [Cpd 455, N-[5-chloro-4-(difluoromethoxy)-2-fluorophenyl]-5-phenyl-1H-pyrrole-3-sulfonamide], under 500 nM; for `N#Cc1cc(F)c(NS(=O)(=O)c2c[nH]c(-c3cc(Cl)c(F)cc3F)c2)cc1F` [Cpd 456, 5-(5-chloro-2,4-difluorophenyl)-N-(4-cyano-2,5-difluorophenyl)-1H-pyrrole-3-sulfonamide], under 500 nM.
The figure for `Cc1cc(-c2cc(S(=O)(=O)Nc3cc(F)c(C(F)(F)F)cc3F)c[nH]2)cs1` [Cpd 457, N-[2,5-difluoro-4-(trifluoromethyl)phenyl]-5-(5-methylthiophen-3-yl)-1H-pyrrole-3-sulfonamide] is 500 to 5000 nM.
For `O=S(=O)(Nc1cc(F)c(C(F)(F)F)cc1F)c1c[nH]c(-c2csc(Cl)c2)c1` [Cpd 458, 5-(5-chlorothiophen-3-yl)-N-[2,5-difluoro-4-(trifluoromethyl)phenyl]-1H-pyrrole-3-sulfonamide] the value was 500 to 5000 nM; for `N#CCOc1cc(F)c(NS(=O)(=O)c2c[nH]c(-c3ccccc3Cl)c2)cc1F` [Cpd 459, 5-(2-chlorophenyl)-N-[4-(cyanomethoxy)-2,5-difluorophenyl]-1H-pyrrole-3-sulfonamide], under 500 nM.
With `COc1nc(OCC(F)F)c(F)cc1NS(=O)(=O)c1c[nH]cc1-c1cccc(F)c1` [Cpd 460, N-[6-(2,2-difluoroethoxy)-5-fluoro-2-methoxypyridin-3-yl]-4-(3-fluorophenyl)-1H-pyrrole-3-sulfonamide], the concentration for half-maximal inhibition (IC50) lay in the range of 500 to 5000 nM.
Regarding `Cc1[nH]cc(S(=O)(=O)Nc2ccc(C#N)cc2F)c1-c1ccccc1` [Cpd 461, N-(4-cyano-2-fluorophenyl)-5-methyl-4-phenyl-1H-pyrrole-3-sulfonamide], the IC50 is 5000 to 50000 nM.
The figure for `N#Cc1cc(F)c(NS(=O)(=O)c2c[nH]c(-c3c(F)cc(F)cc3F)c2)cc1F` [Cpd 462, N-(4-cyano-2,5-difluorophenyl)-5-(2,4,6-trifluorophenyl)-1H-pyrrole-3-sulfonamide] is under 500 nM; for `O=S(=O)(Nc1cc(F)c(OCC(F)F)cc1F)c1c[nH]c(-c2ccccc2)c1` [Cpd 463, N-[4-(2,2-difluoroethoxy)-2,5-difluorophenyl]-5-phenyl-1H-pyrrole-3-sulfonamide] it is 500 to 5000 nM; for `COc1cc(CC#N)cnc1NS(=O)(=O)c1c[nH]c(-c2ccccc2F)c1` [Cpd 464, N-[5-(cyanomethyl)-3-methoxypyridin-2-yl]-5-(2-fluorophenyl)-1H-pyrrole-3-sulfonamide] it is 500 to 5000 nM.
The figure for `O=S(=O)(Nc1cc(F)c(C(F)(F)F)cc1F)c1c[nH]c(-c2cccc3cccnc23)c1` [Cpd 465, N-[2,5-difluoro-4-(trifluoromethyl)phenyl]-5-quinolin-8-yl-1H-pyrrole-3-sulfonamide] is 500 to 5000 nM; for `N#CCOc1cc(F)c(NS(=O)(=O)c2c[nH]cc2-c2cccc(F)c2)cc1F` [Cpd 466, N-[4-(cyanomethoxy)-2,5-difluorophenyl]-4-(3-fluorophenyl)-1H-pyrrole-3-sulfonamide] it is 500 to 5000 nM; for `O=S(=O)(Nc1cc(F)c(OCC(F)F)cc1F)c1c[nH]cc1Cc1ccccc1` [Cpd 468, 4-benzyl-N-[4-(2,2-difluoroethoxy)-2,5-difluorophenyl]-1H-pyrrole-3-sulfonamide] it is 500 to 5000 nM.
For `COc1nc(Br)cnc1NS(=O)(=O)c1c[nH]cc1-c1cccc(F)c1` [Cpd 469, N-(5-bromo-3-methoxypyrazin-2-yl)-4-(3-fluorophenyl)-1H-pyrrole-3-sulfonamide] the value was 500 to 5000 nM; for `N#Cc1cc(F)c(NS(=O)(=O)c2c[nH]c(-c3cc(Cl)c(F)cc3F)c2)cc1Cl` [Cpd 470, 5-(5-chloro-2,4-difluorophenyl)-N-(5-chloro-4-cyano-2-fluorophenyl)-1H-pyrrole-3-sulfonamide], 500 to 5000 nM; for `Cc1cc(NS(=O)(=O)c2c[nH]c(-c3cc(Cl)c(F)cc3F)c2)c(F)cc1C#N` [Cpd 471, 5-(5-chloro-2,4-difluorophenyl)-N-(4-cyano-2-fluoro-5-methylphenyl)-1H-pyrrole-3-sulfonamide], 500 to 5000 nM.
`N#CCOc1cnc(NS(=O)(=O)c2c[nH]c(-c3ccccc3)c2)c(F)c1` [Cpd 472, N-[5-(cyanomethoxy)-3-fluoropyridin-2-yl]-5-phenyl-1H-pyrrole-3-sulfonamide]: the IC50 was in the range of 500 to 5000 nM.
For `O=S(=O)(Nc1cc(F)c(OCC(F)F)cc1F)c1c[nH]c(-c2ccccn2)c1` [Cpd 473, N-[4-(2,2-difluoroethoxy)-2,5-difluorophenyl]-5-pyridin-2-yl-1H-pyrrole-3-sulfonamide], the IC50 was in the range of 500 to 5000 nM.
For `O=S(=O)(Nc1cc(F)c(OC(F)F)cc1F)c1c[nH]c(-c2ccoc2)c1` [Cpd 474, N-[4-(difluoromethoxy)-2,5-difluorophenyl]-5-(furan-3-yl)-1H-pyrrole-3-sulfonamide] the value was under 500 nM.
The figure for `O=S(=O)(Nc1cc(F)c(OC(F)F)cc1F)c1c[nH]c(-c2cccs2)c1` [Cpd 475, N-[4-(difluoromethoxy)-2,5-difluorophenyl]-5-thiophen-2-yl-1H-pyrrole-3-sulfonamide] is under 500 nM; for `O=S(=O)(Nc1cc(F)c(OC(F)F)cc1F)c1c[nH]c(-c2ccsc2)c1` [Cpd 476, N-[4-(difluoromethoxy)-2,5-difluorophenyl]-5-thiophen-3-yl-1H-pyrrole-3-sulfonamide] it is under 500 nM.
The figure for `O=S(=O)(Nc1cc(F)c(Br)cc1F)c1c[nH]c(-c2ccoc2)c1` [Cpd 477, N-(4-bromo-2,5-difluorophenyl)-5-(furan-3-yl)-1H-pyrrole-3-sulfonamide] is under 500 nM; for `O=S(=O)(Nc1cc(F)c(Br)cc1F)c1c[nH]c(-c2cccs2)c1` [Cpd 478, N-(4-bromo-2,5-difluorophenyl)-5-(thiophen-2-yl)-1H-pyrrole-3-sulfonamide] it is under 500 nM.
As to `O=S(=O)(Nc1cc(F)c(Br)cc1F)c1c[nH]c(-c2ccsc2)c1` [Cpd 479, N-(4-bromo-2,5-difluorophenyl)-5-thiophen-3-yl-1H-pyrrole-3-sulfonamide], the IC50 is under 500 nM.
Consider `COc1cccc(Cc2c[nH]cc2S(=O)(=O)Nc2cc(F)c(OC(F)F)cc2F)c1` [Cpd 480, N-[4-(difluoromethoxy)-2,5-difluorophenyl]-4-[(3-methoxyphenyl)methyl]-1H-pyrrole-3-sulfonamide], for which the IC50 was under 500 nM.
For `O=S(=O)(Nc1cc(F)c(C(F)(F)F)cc1F)c1c[nH]cc1Cc1cccc(F)c1` [Cpd 481, N-[2,5-difluoro-4-(trifluoromethyl)phenyl]-4-[(3-fluorophenyl)methyl]-1H-pyrrole-3-sulfonamide] the value was 500 to 5000 nM.
For `COc1cccc(Cc2c[nH]cc2S(=O)(=O)Nc2cc(F)c(C(F)(F)F)cc2F)c1` [Cpd 482, N-[2,5-difluoro-4-(trifluoromethyl)phenyl]-4-[(3-methoxyphenyl)methyl]-1H-pyrrole-3-sulfonamide] the value was 500 to 5000 nM; for `O=S(=O)(Nc1cc(F)c(OC(F)F)cc1F)c1c[nH]cc1Cc1cccc(OC(F)F)c1` [Cpd 483, N-[4-(difluoromethoxy)-2,5-difluorophenyl]-4-[[3-(difluoromethoxy)phenyl]methyl]-1H-pyrrole-3-sulfonamide], 500 to 5000 nM; for `O=S(=O)(Nc1cc(F)c(OC(F)F)cc1F)c1c[nH]cc1Cc1ccccc1F` [Cpd 484, N-[4-(difluoromethoxy)-2,5-difluorophenyl]-4-[(2-fluorophenyl)methyl]-1H-pyrrole-3-sulfonamide], under 500 nM.
On to `O=S(=O)(Nc1cc(F)c(OC(F)F)cc1F)c1c[nH]cc1Cc1ccc(F)cc1` [Cpd 485, N-[4-(difluoromethoxy)-2,5-difluorophenyl]-4-[(4-fluorophenyl)methyl]-1H-pyrrole-3-sulfonamide], for which the IC50 fell in the range of 500 to 5000 nM.
